Measured values from the supplement of paper PMC11451515.

Test system: P12-Ichikawa
Test: cell viability relative to DMSO control; higher = less cytotoxic
Conditions: 48 h
How it was run: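 Viability, reported as a per-plate percentage of DMSO wells with cell-free wells as background, came from CellTiter-Glo One luminescence. Reading took place after 48 h at 37°C. Before that, NOMO1 or SEM (500 cells/well) or P12-Ichikawa (1000 cells/well) leukemia cells, adapted for at least four passages in each medium, were seeded in 1536-well plates (5 μl) and pin-dosed with library compounds in DMSO, 47 μM to 0.79 nM over 11 threefold points.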

[1] = HPLM + 10% dialyzed FBS, 0.000781 µM
[2] = HPLM + 10% dialyzed FBS, 0.00234 µM
[3] = HPLM + 10% dialyzed FBS, 0.00702 µM
[4] = HPLM + 10% dialyzed FBS, 0.0211 µM
[5] = HPLM + 10% dialyzed FBS, 0.0632 µM
[6] = HPLM + 10% dialyzed FBS, 0.19 µM
[7] = HPLM + 10% dialyzed FBS, 0.569 µM
[8] = HPLM + 10% dialyzed FBS, 1.71 µM
[9] = HPLM + 10% dialyzed FBS, 5.12 µM
[10] = HPLM + 10% dialyzed FBS, 15.4 µM
[11] = HPLM + 10% dialyzed FBS, 46.1 µM
[12] = RPMI 5 mM glucose + 10% FBS, 0.000781 µM
[13] = RPMI 5 mM glucose + 10% FBS, 0.00234 µM
[14] = RPMI 5 mM glucose + 10% FBS, 0.00702 µM
[15] = RPMI 5 mM glucose + 10% FBS, 0.0211 µM
[16] = RPMI 5 mM glucose + 10% FBS, 0.0632 µM
[17] = RPMI 5 mM glucose + 10% FBS, 0.19 µM
[18] = RPMI 5 mM glucose + 10% FBS, 0.569 µM
[19] = RPMI 5 mM glucose + 10% FBS, 1.71 µM
[20] = RPMI 5 mM glucose + 10% FBS, 5.12 µM
[21] = RPMI 5 mM glucose + 10% FBS, 15.4 µM
[22] = RPMI 5 mM glucose + 10% FBS, 46.1 µM
[23] = RPMI 5 mM glucose + 10% dialyzed FBS, 0.000781 µM
[24] = RPMI 5 mM glucose + 10% dialyzed FBS, 0.00234 µM
[25] = RPMI 5 mM glucose + 10% dialyzed FBS, 0.00702 µM
[26] = RPMI 5 mM glucose + 10% dialyzed FBS, 0.0211 µM
[27] = RPMI 5 mM glucose + 10% dialyzed FBS, 0.0632 µM
[28] = RPMI 5 mM glucose + 10% dialyzed FBS, 0.19 µM
[29] = RPMI 5 mM glucose + 10% dialyzed FBS, 0.569 µM
[30] = RPMI 5 mM glucose + 10% dialyzed FBS, 1.71 µM
[31] = RPMI 5 mM glucose + 10% dialyzed FBS, 5.12 µM
[32] = RPMI 5 mM glucose + 10% dialyzed FBS, 15.4 µM
[33] = RPMI 5 mM glucose + 10% dialyzed FBS, 46.1 µM

SMILES	cell viability [1] [%]	cell viability [2] [%]	cell viability [3] [%]	cell viability [4] [%]	cell viability [5] [%]	cell viability [6] [%]	cell viability [7] [%]	cell viability [8] [%]	cell viability [9] [%]	cell viability [10] [%]	cell viability [11] [%]	cell viability [12] [%]	cell viability [13] [%]	cell viability [14] [%]	cell viability [15] [%]	cell viability [16] [%]	cell viability [17] [%]	cell viability [18] [%]	cell viability [19] [%]	cell viability [20] [%]	cell viability [21] [%]	cell viability [22] [%]	cell viability [23] [%]	cell viability [24] [%]	cell viability [25] [%]	cell viability [26] [%]	cell viability [27] [%]	cell viability [28] [%]	cell viability [29] [%]	cell viability [30] [%]	cell viability [31] [%]	cell viability [32] [%]	cell viability [33] [%]
NC(=O)C1CCCc2c1[nH]c1ccc(Cl)cc21 (stereo not given)	112	112	113	114	115	110	105	102	83.4	46.2	38.2	107	111	111	104	108	112	109	109	103	59.8	32.3	114	101	112	107	112	106	111	94.4	93.8	48.2	18.3
c1ccc(CNc2nc(N3CCOc4ccccc43)nc3c2CCCC3)cc1	101	102	107	108	117	99.5	128	115	109	107	107	102	99.9	100	106	105	110	111	106	108	100	96.9	102	112	107	114	110	105	110	116	105	103	104
O=C\1N(N\C=C1[N]2C=CN=N2)C3=NC=NC(=C3)N4CCOCC4	78.4	81.7	76.7	82.8	56.6	32.5	18.6	20.6	19.2	15.9	8.11	68.7	82.9	76.4	81	74.8	46.8	13.4	30.9	16.8	15.2	11.9	74.2	83.1	78.1	78.6	72.2	47.2	34.4	38.9	20.8	26.8	17
Nc1nc(N)c2nc(-c3cccc(O)c3)c(-c3cccc(O)c3)nc2n1	117	113	113	110	120	117	94.6	89.9	81.2	72.2	55.2	108	117	113	109	122	112	118	118	101	89	28.1	111	116	113	123	120	114	107	116	108	95.5	52.1
Cc1cnc(C(=O)O)c[n+]1[O-]	115	120	112	115	112	116	114	119	111	107	105	122	128	124	126	120	127	125	127	116	119	100	121	130	123	111	117	123	120	108	115	109	102
